Where a name gives a salt, the structure may show the parent alone.

The results in this text go back to US20040034040A1, “Use of thienopyrimidines” (priority 2000, published 2004).

A word on the melting point: it is the temperature of the solid-liquid transition. The compound `COc1ccc(CNc2nc(CCC(=O)O)nc3sc4c(c23)CCCC4)cc1Cl` (as salt: salt) [Example 2, 3-[4-(3-chloro-4-methoxybenzylamino)-5,6,7,8-tetrahydro-[1]-benzothieno-[2,3-d]-pyrimidin-2-yl]propionic acid] displayed a melting point of 229 °C.
